From US20220127297A1, “Novel Antibacterial 3"-Derivatives Of 4,6-Disubstituted 2,5-Dideoxystreptamine Aminoglycoside Antibiotics” (AGILeBiotics B.V., priority 2018, published 2022)
≈ marks a conversion by molar mass, not a printed value. Where two headings read alike, the source gives them in different places.

Key:
[1] = tested on: Escherichia coli ATCC700336; experiment: Urinary tract infection model; format: in vivo, female C3H/HeNRj mice; details: for Change from vehicle group / Avg. Log CFU/g (kidney pair): SC, QD; for Change from vehicle group: Avg. Log CFU/g (kidney pair) vs vehicle; for Avg. Log CFU/g (kidney pair): kidneys 24 hours post treatment
Method: 4.3 Urinary Tract Infection Model (Escherichia coli ATCC700336)
Two compounds, i.e. ABX5006 and ABX5026, and a comparator antibiotic (gentamicin sulfate; Cat. No. G4918, Sigma Aldrich) were tested in a mouse model of urinary tract infection with Escherichia coli ATCC700336.
Urinary tract infection model: Pathogen-free female C3H/HeNRj mice (8 mice per dosing group) weighing 24±4 g were used.
For subcutaneous treatment, pre-weighed reference compound (gentamicin sulfate) was dissolved in 0.9% sodium chloride solution, to reach a final concentration of 1.5 mg/mL for a dose of 15 mg/kg (group 3) or 3.0 mg/mL for a dose of 30 mg/kg (group 2). Each mouse was infected transurethral with Escherichia coli ATCC700336 (5.0×10^1 CFU/100 μL/mouse), under light ketamine/xylazine anesthesia. Mice were water deprived 1.5 hours prior to infection and 1 hour post infection.
Animals were dosed subcutaneously once either with gentamicin (groups 2-3), ABX5006 (groups 4-5), ABX5026 (groups 6-7) or vehicle—PBS (group 1) 24 hours post infection.
Both kidneys were aseptically removed and placed into pre-weighed sterile Precellys test tube containing 2 mL of sterile PBS. Post-sampling, Precellys test tubes were weighed once again. Kidneys were homogenized in sterile PBS by Precellys Evolution, homogenizer, BERTIN Technologies, and serially diluted for CFU determination. Kidney pairs of one animal will represent one sample.
Supplies/Chemicals. Tryptic Soy Agar (BD Cat. no. 236950, Becton Dickinson), Trypticase Soy Broth (BD Cat. no. 211768, Becton Dickinson), 2 mL syringes (BD Plastipak, Ref. 300185, Becton Dickinson), 1 mL syringes (BD Plastipak, Ref. 300013, Becton Dickinson), Sterile, single use needles (BD MICROLANCE, 27 G ¾, Nr. 20 ref. 300220, Becton Dickinson), Sterile, single use needles (BD MICROLANCE, 25 G 1, Nr. 18 ref. 300400, Becton Dickinson), Narkamon (100 mg/mL ketamine chloride) (Bioveta, a.s., Czech Republic), Xylazine 2% (Alfasan International B.V., Woerden, Netherlands), Saline (HZ™, serial no.: 1422115), PBS (Sigma, cat. no. P4417, Germany), Precellys lysing kit (ref. no. KT03961-1-302.7, Bertin technologies, France).
Inoculum preparation for intramuscular infection. Escherichia coli ATCC 700336 was grown on Tryptic Soy Agar plate and incubated for 18-20 h at 37° C. Bacterial agar growth was suspended to 1.0×10^10 colony-forming units (CFU)/mL in adequate volume of tryptic soy broth (TSB), and the inoculum was held at 4° C. until it was used for infection.
CFU determination. Kidney pairs were homogenized using a Precellys Evolution homogenizer (Bertin Instruments).

[2] = tested on: clinical isolates of Pseudomonas aeruginosa (and ATCC 27853); experiment: MIC determination at University Medical Center Groningen; format: cell-based
Source text: 3.4.3 MIC Determination at University Medical Center Groningen (the Netherlands)
Tested reference compounds. Amikacin sulfate (Cat. No. 01693, Chem-Impex), Gentamicin sulfate (Cat. No. G4918, Sigma Aldrich).
Bacterial strains/isolates. Pseudomonas aeruginosa ATCC 27853, Escherichia coli ATCC 25922, Klebsiella pneumonia ATCC43816, Acinetobacter baumannii ATCC17978, 9 clinical isolates of Klebsiella pneumonia (origin: 4 unknown, 3 urine, 1 sputum, 1 catheter tip), 7 clinical isolates of Pseudomonas aeruginosa (origin: 3 unknown, 1 wound, 1 catheter, 1 faeces, bronco alveolar liquid=BAL), 8 clinical isolates of Escherichia coli (origin: 2 bile liquid, 2 rectum, 1 throat, 2 blood culture, 1 sputum), 4 clinical isolates of Acinetobacter baumannii (origin: 2 blood culture, 1 sputum, 1 bone).
Culture media and equipment. As indicated by EUCAST guidelines (European Committee on Antimicrobial Susceptibility Testing (EUCAST); Media preparation for EUCAST disk diffusion testing and for determination of MIC values by the broth microdilution method; Version 5.0, 2017), Mueller Hinton Broth, CM0405, (Oxoid) was used for the broth micro-dilutions; and Mueller Hinton Agar, CM0337, (Oxoid) was used for the plating on agar. The testing assays were conducted in 96-well plates, with U-bottom shape (Greiner Bio-one); All bacteria strains/isolates used were handled in a Laminar flow, Clean Air (Baker). A CO2 incubator commercialized by Sanyo was used. Finally, spectrophotometer measurements were conducted using a Synergy 2 Multi-detection Microplate Reader (BioTek).
Compound preparation. The compounds were weighed and dissolved into MilliQ water. These concentrated stock aliquots were then further diluted to reach the desired testing concentrations. Serial dilutions were made in order to achieve the ten desired final concentrations for the tested compounds, that ranged between 64-0.125 μg/mL. The concentrations were calculated in respect to the 150 μL of final volume used for each of the 96-wells. Of these dilutions, 100 μL was added in each testing well of a sterile 96-well plate. All compound dilutions were plated in triplicate, while duplicates were used for the two reference antibiotics.
Inoculum preparation. The clinical isolates were revived from Luria Bertani medium storage at −80° C. by plating them overnight on MH agar plates. The following day, a few colonies were picked and inoculated in small glass bottles containing 10 mL MH broth. Growth was subsequently allowed for approx. 3 hours, at 35° C. with 250 rpm shaking, until the isolates reached late logarithmic growth phase. At this point culture solutions were prepared with an OD600 (optical density measured at 600 nm; measured using Synergy 2 Multi-detection Microplate Reader; BioTek) of 0.05. […] 50 μL of culture suspension was added to each of the wells of the 96 well plate previously loaded with the desired antibiotic/medium solution, reaching a final total volume of 150 μL per well. As controls, blanks of the MH medium and of culture were added to the 96-well plate. Plates were incubated in a plate incubator in static conditions at 35° C. for 18 hours.
MIC determination. After the incubation time, the MIC value was determined by visual inspection of bacterial growth within 96-well plates. The first column in which there was no visible growth of bacteria was determined as the MIC90 value for the compound tested in that particular row. Additionally, spectrophotometer readouts at 600 nm were recorded for each well.
MIC90. The MIC90 of a compound was assigned at which no visible growth of bacteria was determined.

[3] = tested on: Escherichia coli (ATCC 700336); experiment: MIC against the strain of the urinary tract infection model; format: cell-based; details: ATCC700336

| SMILES | CFU count reduction in kidneys in comparison to the vehicle control group ([1]; dose 15 mg/kg SC QD) | Change from vehicle group ([1]; dose 15 mg/kg) | Avg. Log CFU/g (kidney pair) ([1]; dose 15 mg/kg) | CFU count reduction in kidneys in comparison to the vehicle control group ([1]; dose 30 mg/kg SC QD) | Change from vehicle group ([1]; dose 30 mg/kg) | Avg. Log CFU/g (kidney pair) ([1]; dose 30 mg/kg) | MIC90 ([2]; ATCC27853, P. aeruginosa ATCC27853 strain, broth micro-dilution (CLSI), read-out: MIC 90) | MIC90 ([2]; ATCC27853, P. aeruginosa clinical isolate PA-179, Multidrug-resistant, origin Wound, read-out: MIC 90) | MIC90 ([2]; ATCC27853, P. aeruginosa clinical isolate PA-195, Multidrug-resistant, origin Catheter, read-out: MIC 90) | MIC90 ([2]; ATCC27853, P. aeruginosa clinical isolate PA-198, Multidrug-resistant, origin unkown) | MIC90 ([2]; ATCC27853, P. aeruginosa clinical isolate PA-202, Multidrug-resistant, origin Faeces, read-out: MIC 90) | MIC90 ([2]; ATCC 27853 / BAL, P. aeruginosa clinical isolate P4-171, Pandrug-resistant, origin BAL, read-out: MIC 90) | MIC [3] | samples with CFU counts below the limit of detection ([1]; kidneys, LOD=2.0×10^2 CFU/mL) |
| --- | --- | --- | --- | --- | --- | --- | --- | --- | --- | --- | --- | --- | --- | --- |
| N=C(N)NC1C(O)[C@@H](CO)OC(OC2C(F)[C@H](O[C@H]3OC(CN)[C@@H](O)CC3N)C(N)C[C@H]2NC(=O)[C@@H](O)CCN)[C@@H]1O (stereo partly drawn) [ABX5006, Tobra-AHB-F-Gua] | 1.38 log 10 | 1.38 | 2.60 Log CFU/g | 1.53 log 10 | 1.53 | 1.45 Log CFU/g | 0.25 µg/mL | 2 to 4 µg/mL | 0.5 to 1 µg/mL | 1 to 2 µg/mL | 0.25 to 0.5 µg/mL | 8 µg/mL | 0.25 µg/mL (≈ 0.408 µM) | – |
| N=C(NC[C@@H]1CCCN1)NC1[C@@H](O)C(OC2[C@@H](F)[C@H](O[C@H]3OC(CN)[C@@H](O)CC3N)C(N)C[C@H]2NC(=O)[C@@H](O)CCN)O[C@H](CO)[C@H]1O (stereo partly drawn) [ABX5026, Tobra-AHB-F-Gua (S) pyrrolidine-2-yl-methyl] | 1.58 log 10 | 1.58 | 1.40 Log CFU/g | 1.72 log 10 | 1.22 | 2.26 Log CFU/g | – | – | – | – | – | – | 1 µg/mL (≈ 1.44 µM) | five out of eight |
